In brackets after ≈: the same amount, converted by molar mass.
Test system: Plasmodium falciparum; call rule not given here
Experiment: Antimicrobial activity against Plasmodium falciparum FCC1/HN
Assay type: functional, organism-based
[1] = Plasmodium falciparum, FCC1/HN, read-out: IC50

SMILES | IC50 [1] [µg/mL] | IC50
C[C@@H]1CC[C@H]2[C@@H](C)C(=O)O[C@@H]3O[C@@]4(C)CC[C@@H]1[C@]32OO4 [ARTEMISININ] | 0.0031 (≈ 0.011 µM) | –
C[C@@H]1[C@@H](O)C[C@H]2[C@@H](C)C(=O)O[C@@H]3O[C@]4(C)CC[C@@H]1C32OO4 | 0.0293 (≈ 0.0982 µM) | –
C[C@@H]1CC[C@H]2[C@@H](C)C(=O)O[C@@H]3O[C@@]4(C)OC32[C@H]1C[C@H]4O | – | Not Active
C[C@@H]1C(=O)C[C@H]2[C@@H](C)C(=O)O[C@@H]3O[C@]4(C)CC[C@@H]1C32OO4 | 0.0257 (≈ 0.0867 µM) | –
C[C@@H]1[C@H](O)C[C@H]2[C@@H](C)C(=O)O[C@@H]3O[C@]4(C)CC[C@@H]1C32OO4 | 0.0346 (≈ 0.116 µM) | –

Source: ChEMBL document CHEMBL1146922, “A novel ketone derivative of artemisinin biotransformed by Streptomyces griseus ATCC 13273” (Bioorg Med Chem Lett, 2006)
